From PubChem BioAssay AID330 (DTP/NCI, 2004) come the findings set out here.

The test has as its system P388 leukemia ip, CD2F1 mice, survival T/C. Kind of test: NCI In Vivo Anticancer Drug Screen. Data for tumor model P388 Leukemia (intraperitoneal) in CD2F1 (CDF1) mice. To be noted: endpoint: median survival time, higher = longer survival. The essentials:
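Mice carrying the transplanted tumor received test compound or vehicle. Survival was recorded in each group, and the value is the treated-group measurement divided by that of the vehicle-treated control group.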

The mark [1] stands for this setting: dose: 50.0 mg/kg/injection, schedule: Q01DX005 (ip), vehicle: saline with Tween-80.
The mark [2] stands for this setting: dose: 200.0 mg/kg/injection, schedule: Q01DX005 (ip), vehicle: saline with Tween-80.
[3] abbreviates: dose: 50.0 mg/kg/injection, schedule: Q01DX009 (ip), vehicle: saline with Tween-80.
The mark [4] stands for this setting: dose: 12.5 mg/kg/injection, schedule: Q01DX009 (ip), vehicle: saline with Tween-80.
Setting [5] is: dose: 25.0 mg/kg/injection, schedule: Q01DX009 (ip), vehicle: saline with Tween-80.
[6] abbreviates: dose: 60.0 mg/kg/injection, schedule: Q01DX005 (ip), vehicle: saline with Tween-80.
The mark [7] stands for this setting: dose: 120.0 mg/kg/injection, schedule: Q01DX005 (ip), vehicle: saline with Tween-80.
[8] abbreviates: dose: 240.0 mg/kg/injection, schedule: Q01DX005 (ip), vehicle: saline with Tween-80.
The mark [9] stands for this setting: dose: 12.5 mg/kg/injection, schedule: Q01DX009 (ip), vehicle: Klucel (hydroxypropylcellulose) (HPC).
The mark [10] stands for this setting: dose: 25.0 mg/kg/injection, schedule: Q01DX009 (ip), vehicle: Klucel (hydroxypropylcellulose) (HPC).

Each structure is given as a SMILES string. “And” between values parts separate entries of the source, which are not always exact repeats. Equal entries are not always repeated. Toxic doses and inconclusive results are not listed.

For `CCCCCC/C=C\C(=O)O[C@H]1C(=O)O[C@@H]2C[C@H]3C(C)=C(O)C(=O)C[C@]3(C)[C@H]3[C@@H](O)[C@H](O)[C@@]4(C(=O)OC)OC[C@]32[C@@H]14`, the T/C was 105 % of control (dose: 0.75 mg/kg/injection, schedule: Q01DX005 (ip), vehicle: Klucel (hydroxypropylcellulose) (HPC)); 111 % of control (dose: 1.5 mg/kg/injection, schedule: Q01DX005 (ip), vehicle: Klucel (hydroxypropylcellulose) (HPC)); 112 % of control (dose: 3.0 mg/kg/injection, schedule: Q01DX005 (ip), vehicle: Klucel (hydroxypropylcellulose) (HPC)); 116 % of control (dose: 6.0 mg/kg/injection, schedule: Q01DX005 (ip), vehicle: Klucel (hydroxypropylcellulose) (HPC)).

Consider `Cc1cc(C(F)(F)F)nc2nc3ccccc3n12`, for which the T/C by setting is: (dose: 60.0 mg/kg/injection, schedule: Q01DX005 (ip), vehicle: Klucel (hydroxypropylcellulose) (HPC)) 101 % of control; (dose: 120.0 mg/kg/injection, schedule: Q01DX005 (ip), vehicle: Klucel (hydroxypropylcellulose) (HPC)) 102 % of control; (dose: 240.0 mg/kg/injection, schedule: Q01DX005 (ip), vehicle: Klucel (hydroxypropylcellulose) (HPC)) 89 % of control.

`O=C1CN(c2cccc(Cl)c2)C(=O)CN1/N=C/c1cccnc1`: the T/C is 96 % of control (dose: 25.0 mg/kg/injection, schedule: Q01DX005 (ip), vehicle: saline with Tween-80); 87 % of control and 91 % of control under setting [1]; 87 % of control under setting [2].

`O=C(/C=C/c1ccc(Cl)c(Cl)c1)/C=C/c1ccc(Cl)c(Cl)c1`: the T/C is 87 % of control under setting [3]; 100 % of control (dose: 100.0 mg/kg/injection, schedule: Q01DX009 (ip), vehicle: saline with Tween-80); 87 % of control (dose: 200.0 mg/kg/injection, schedule: Q01DX009 (ip), vehicle: saline with Tween-80).

Turning to `CC(=O)O[C@H]1C(=O)[C@]2(C)[C@@H](OC(C)=O)CC3OC[C@@]3(OC(C)=O)[C@H]2[C@H](OC(=O)c2ccccc2)[C@]2(O)C[C@H](OC(=O)[C@H](OC(C)=O)[C@@H](NC(=O)c3ccccc3)c3ccccc3)C(C)=C1C2(C)C` (stereo partly drawn), the T/C runs as follows: (dose: 2.5 mg/kg/injection, schedule: Q01DX005 (ip), vehicle: DMSO) 100 % of control; (dose: 5.0 mg/kg/injection, schedule: Q01DX005 (ip), vehicle: DMSO) 102 % of control and 118 % of control; (dose: 10.0 mg/kg/injection, schedule: Q01DX005 (ip), vehicle: DMSO) 102 % of control and 124 % of control; (dose: 12.5 mg/kg/injection, schedule: Q01DX005 (ip), vehicle: DMSO) 107 % of control; (dose: 20.0 mg/kg/injection, schedule: Q01DX005 (ip), vehicle: DMSO) 121 % of control; (dose: 25.0 mg/kg/injection, schedule: Q01DX005 (ip), vehicle: DMSO) 120 % of control. The T/C was 178 % of control (dose: 40.0 mg/kg/injection, schedule: Q01DX005 (ip), vehicle: DMSO); 124 % of control (dose: 50.0 mg/kg/injection, schedule: Q01DX005 (ip), vehicle: DMSO); 120 % of control (dose: 100.0 mg/kg/injection, schedule: Q01DX005 (ip), vehicle: DMSO).

For `CC1(C)SC(C(NC(=O)Cc2ccccc2)C(=O)O)NC1C(=O)O` (stereo not drawn), the T/C reads like this: (dose: 100.0 mg/kg/injection, schedule: Q04DX003 (ip), vehicle: saline with Tween-80) 90 % of control; (dose: 200.0 mg/kg/injection, schedule: Q04DX003 (ip), vehicle: saline with Tween-80) 100 % of control; (dose: 400.0 mg/kg/injection, schedule: Q04DX003 (ip), vehicle: saline with Tween-80) 104 % of control.

Regarding `COc1ccc2sc3c(C)ccc(NCCC4CCCN5CCCCC45)c3c(=O)c2c1` (stereo not drawn), the T/C by setting is: (dose: 100.0 mg/kg/injection, schedule: Q01DX001 (ip), vehicle: saline with Tween-80) 87 % of control; (dose: 200.0 mg/kg/injection, schedule: Q01DX001 (ip), vehicle: saline with Tween-80) 87 % of control.

Regarding `COc1cc(Cc2nc3n(O)cc(-c4ccccc4)nc-3c(=N)n2)cc(OC)c1OC`, the T/C is 104 % of control under setting [4], 108 % of control under setting [5] and 104 % of control under setting [3].

Consider `NC(N)=NC(=O)COc1ccc(Cl)cc1Cl`, for which the T/C is, setting by setting: under setting [6], 97 % of control; under setting [7], 103 % of control; under setting [8], 114 % of control.

In the case of `CC(C)CC([NH-])C(=O)O.[C-]#[O+].[C-]#[O+].[Rh]` (stereo not drawn), the T/C is 113 % of control (dose: 6.25 mg/kg/injection, schedule: Q01DX009 (ip), vehicle: saline with Tween-80); 115 % of control under setting [4]; 109 % of control under setting [5].

Take `CCN(CC)P(=S)(c1ccccc1CCP(=S)(c1ccccc1)c1ccccc1)N(CC)CC`: the T/C is, setting by setting: under setting [6], 92 % of control; under setting [7], 93 % of control; under setting [8], 91 % of control.

Regarding `CCSC(=S)Nc1nc2ccc(C)cc2s1`, the T/C is, setting by setting: (dose: 6.25 mg/kg/injection, schedule: Q01DX009 (ip), vehicle: Klucel (hydroxypropylcellulose) (HPC)) 107 % of control; under setting [9], 89 % of control; under setting [10], 103 % of control.

In the case of `CC(C)C1N(N2C(=O)CS(=O)(=O)C2C(C)C)C(=O)CS1(=O)=O` (stereo not drawn), the T/C was 98 % of control under setting [1]; 101 % of control (dose: 100.0 mg/kg/injection, schedule: Q01DX005 (ip), vehicle: saline with Tween-80); 102 % of control under setting [2].

Take `Cc1ccc2c(c1)sc1nnc(S(C)(=O)=O)n12`: the T/C runs as follows: under setting [9], 118 % of control; under setting [10], 110 % of control; (dose: 50.0 mg/kg/injection, schedule: Q01DX009 (ip), vehicle: Klucel (hydroxypropylcellulose) (HPC)) 102 % of control and 118 % of control; (dose: 100.0 mg/kg/injection, schedule: Q01DX009 (ip), vehicle: Klucel (hydroxypropylcellulose) (HPC)) 111 % of control.

`NC(CSCNc1ncnc2c1ncn2C1OC(CO)C(O)C1O)C(=O)O` (stereo not drawn): the T/C was 105 % of control (dose: 100.0 mg/kg/injection, schedule: Q04DX002 (ip), vehicle: saline with Tween-80); 105 % of control (dose: 200.0 mg/kg/injection, schedule: Q04DX002 (ip), vehicle: saline with Tween-80); 102 % of control (dose: 400.0 mg/kg/injection, schedule: Q04DX002 (ip), vehicle: saline with Tween-80).

Turning to `O=C(O)CC(O)C(F)(F)C(F)(F)C(F)(F)F` (stereo not drawn), the T/C was 100 % of control (dose: 18.75 mg/kg/injection, schedule: Q04DX003 (ip), vehicle: saline); 95 % of control (dose: 37.5 mg/kg/injection, schedule: Q04DX003 (ip), vehicle: saline); 109 % of control (dose: 75.0 mg/kg/injection, schedule: Q04DX003 (ip), vehicle: saline).

For the compound `C=C(C)C(=O)c1ccc(C(=O)O)cc1`, the T/C reads like this: (dose: 12.5 mg/kg/injection, schedule: Q04DX002 (ip), vehicle: saline with Tween-80) 105 % of control; (dose: 25.0 mg/kg/injection, schedule: Q04DX002 (ip), vehicle: saline with Tween-80) 114 % of control; (dose: 50.0 mg/kg/injection, schedule: Q04DX002 (ip), vehicle: saline with Tween-80) 122 % of control.

Take `O=C1C(Cl)=C(Nc2cccc3cc4ccccc4nc23)C(=O)c2ccccc21`: the T/C reads like this: (dose: 5.0 mg/kg/injection, schedule: Q01DX009 (ip), vehicle: saline) 104 % of control and 112 % of control; (dose: 10.0 mg/kg/injection, schedule: Q01DX009 (ip), vehicle: saline) 113 % of control and 114 % of control; (dose: 20.0 mg/kg/injection, schedule: Q01DX009 (ip), vehicle: saline) 104 % of control.

`CC(C)(C)c1cc(C(O)(C(F)(F)F)C(F)(F)F)c(S)c(C(O)(C(F)(F)F)C(F)(F)F)c1`: the T/C was 103 % of control (dose: 3.12 mg/kg/injection, schedule: Q01DX005 (ip), vehicle: suspension in saline); 103 % of control (dose: 6.25 mg/kg/injection, schedule: Q01DX005 (ip), vehicle: suspension in saline); 103 % of control (dose: 12.5 mg/kg/injection, schedule: Q01DX005 (ip), vehicle: suspension in saline); 110 % of control and 112 % of control (dose: 25.0 mg/kg/injection, schedule: Q01DX005 (ip), vehicle: suspension in saline).

Take `COc1ccc(N=Nc2nc(N)c(C(N)=O)[nH]2)cc1`: the T/C runs as follows: (dose: 100.0 mg/kg/injection, schedule: Q04DX003 (ip), vehicle: Klucel (hydroxypropylcellulose) (HPC)) 100 % of control; (dose: 200.0 mg/kg/injection, schedule: Q04DX003 (ip), vehicle: Klucel (hydroxypropylcellulose) (HPC)) 103 % of control; (dose: 400.0 mg/kg/injection, schedule: Q04DX003 (ip), vehicle: Klucel (hydroxypropylcellulose) (HPC)) 106 % of control.
